# Values of other authors, collected in patent US6730813B2, “Method for producing n-(phosphonomethyl) glycine” (Monsanto Technology LLC, priority 2000, dated 2004).
# Like-named read-outs stand apart in the source and are kept apart here.
smiles,measurement,setting,value
"O=C(O)CNCP(=O)(O)O [glyphosate, N-(phosphonomethyl)glycine]",solubility in organic solvents,"organic solvents, compared with water",much lower
same,solubility in water,5° C.,0.8%
same,solubility in water,20° C.,1.1%
same,solubility in water,95° C.,6.5%
